This is an account of results in DBAASP.

≈ marks a conversion by molar mass, not a printed value.

Some test systems named below: Escherichia coli UB1005; Bacillus cereus C737; Enterobacter cloacae; Citrobacter sp.; Staphylococcus aureus; Streptococcus pneumoniae; Klebsiella pneumoniae; Escherichia coli K99; Escherichia coli K88; Escherichia coli 078; Escherichia coli EC183; Candida albicans CA2761.
Holding throughout (assay): ≥ marks a high value that may be exact or a test limit, other limits are often not marked, values filed in µg/mL are converted to µM
The subject of assay [1] is Pseudomonas aeruginosa PAO1.
The test system of assay [2] is Pseudomonas aeruginosa ATCC 15442.
Assay [3] relates to Escherichia coli ATCC 25922.
The test system of assay [4] is Acinetobacter baumannii ATCC 15308.
The test system of assay [5] is Staphylococcus aureus ATCC 25923.
The test system of assay [6] is Bacillus cereus ATCC 11778.
Assay [7] deals with Serratia marcescens ATCC 21202.
The test system of assay [8] is Pseudomonas aeruginosa ATCC 27853.
For assay [9], the system named is Streptococcus pyogenes ATCC 19615.
In assay [10] the test system is Staphylococcus aureus ATCC 29213.
Assay [11] relates to Klebsiella pneumoniae ATCC 700603.
Assay [12] concerns Salmonella enterica subsp. enterica serovar Enteritidis ATCC 13076.
Assay [13] has as its system Bacillus subtilis CMCC 63501.
The test system of assay [14] is Candida tropicalis CGMCC 2.1975.
Assay [15] has as its system Salmonella enterica subsp. enterica serovar Typhimurium ATCC 14028.
For assay [16], the system named is Candida albicans CGMCC 2.2086.
Assay [17] relates to Salmonella enterica subsp. enterica serovar Typhimurium C77-31.
Assay [18] relates to Staphylococcus epidermidis ATCC 12228.
Assay [19] concerns Enterococcus faecalis ATCC 29212.
Assay [20] has as its system Salmonella enterica subsp. enterica serovar Pullorum C79-13.
Assay [21] relates to Candida krusei CGMCC 2.1857.
Assay [22] deals with Enterobacter cloacae CICC 21539.
Assay [23] relates to Serratia marcescens ATCC 4112.
Assay [24] concerns Escherichia coli CICC 10293.
In assay [25] the test system is Staphylococcus aureus CICC 10306.
The subject of assay [26] is Salmonella enterica subsp. enterica serovar Paratyphi B CICC 10437.
In assay [27] the test system is Staphylococcus aureus CICC 10384.
The subject of assay [28] is Pseudomonas aeruginosa CICC 21636.
For assay [29], the system named is Bacillus subtilis CICC 10034.
Assay [30] has as its system Listeria innocua CICC 10417.
The test system of assay [31] is Bacillus subtilis ATCC 6051.
For assay [32], the system named is Vibrio anguillarum ATCC 43305.
Assay [33] concerns Acinetobacter baumannii ATCC 19606.

Regarding `CC[C@H](C)[C@H](NC(=O)[C@H](CC(=O)O)NC(=O)[C@H](Cc1ccccc1)NC(=O)[C@H](CC(C)C)NC(=O)CN)C(=O)N[C@H](C(=O)N[C@@H](CCCCN)C(=O)N[C@@H](CCCCN)C(=O)N[C@H](C(=O)N[C@H](C(N)=O)C(C)C)C(C)C)C(C)C` [GLFDIVKKVV], the figures for the minimum inhibitory concentration (MIC) (in assay [1]; in the assay with Escherichia coli UB1005; in the assay on Bacillus cereus C737) were > 115 µM, ≥ 115 µM and ≥ 115 µM, respectively.
In the case of `NC(=O)[C@H](CCCN=C(N)N)NC(=O)[C@H](CCCN=C(N)N)NC(=O)[C@H](Cc1c[nH]c2ccccc12)NC(=O)[C@@H]1CCCN1C(=O)[C@H](Cc1c[nH]c2ccccc12)NC(=O)[C@H](Cc1c[nH]c2ccccc12)NC(=O)[C@@H]1CCCN1C(=O)[C@H](Cc1c[nH]c2ccccc12)NC(=O)[C@H](CCCN=C(N)N)NC(=O)[C@H](Cc1c[nH]c2ccccc12)NC(=O)[C@@H]1CCCN1C(=O)[C@H](CCCN=C(N)N)NC(=O)[C@@H](N)CCCN=C(N)N` [RRPWRWPWWPWRR], the MIC was ≥ 124 µM against Enterobacter cloacae; 15.5 µM (≈ 31.2 µg/mL) in [2]; ≥ 124 µM against Citrobacter sp.; 15.5 µM (≈ 31.2 µg/mL) in assay [3]; ≥ 124 µM in assay [4]; 15.5 µM (≈ 31.2 µg/mL) with Staphylococcus aureus. Also, the MIC in assay [5] was 15.5 µM (≈ 31.2 µg/mL); against Streptococcus pneumoniae, 15.5 µM (≈ 31.2 µg/mL); against Klebsiella pneumoniae, > 124 µM.
In the case of `CC[C@H](C)[C@H](N)C(=O)N[C@H](C(=O)N1CCC[C@H]1C(=O)N[C@@H](CC(C)C)C(=O)N1CCC[C@H]1C(=O)N[C@@H](CC(C)C)C(=O)NCC(=O)N[C@@H](Cc1ccc(O)cc1)C(=O)N[C@@H](Cc1ccccc1)C(=O)N[C@@H](C)C(=O)N[C@@H](CCCCN)C(=O)N[C@@H](CCCCN)C(=O)N1CCC[C@H]1C(=O)O)[C@@H](C)CC` [IIPLPLGYFAKKP], the MIC was ≥ 68.6 µM in assay [6]; > 68.6 µM in [3]; ≥ 68.6 µM in [7]; > 68.6 µM in assay [8]; ≥ 68.6 µM in assay [9]; > 68.6 µM in [10]. Moreover, the values for the MIC in [11] and in assay [12] were > 68.6 µM and ≥ 68.6 µM, respectively.
As to `CC[C@H](C)[C@H](NC(=O)[C@H](Cc1c[nH]c2ccccc12)NC(=O)[C@H](CCCCN)NC(=O)[C@H](CC(C)C)NC(=O)[C@@H](NC(=O)[C@H](CCCCN)NC(=O)CNC(=O)[C@@H](NC(=O)[C@H](CCCCN)NC(=O)[C@H](CCCCN)NC(=O)[C@H](CC(C)C)NC(=O)[C@@H](N)CCCN=C(N)N)[C@@H](C)CC)C(C)C)C(N)=O` [RLKKIGKVLKWI], the minimum inhibitory concentration (MIC) in assay [13] is 2 µM (≈ 2.96 µg/mL); in the assay on Escherichia coli K99, 4 µM (≈ 5.92 µg/mL); in assay [14], 8 µM (≈ 11.8 µg/mL); in assay [15], 16 µM (≈ 23.7 µg/mL); in assay [16], ≥ 128 µM; in [17] it was 8 µM (≈ 11.8 µg/mL). Besides, the MIC in [3] came out at 8 µM (≈ 11.8 µg/mL); with Escherichia coli K88, 4 µM (≈ 5.92 µg/mL); in assay [18], 64 µM (≈ 94.8 µg/mL); in the assay on Escherichia coli 078, 16 µM (≈ 23.7 µg/mL); in assay [5] it was 128 µM (≈ 190 µg/mL); in the assay with Escherichia coli UB1005 it was 16 µM (≈ 23.7 µg/mL). In addition, the minimum inhibitory concentration (MIC) in the assay on Escherichia coli EC183 was 2 µM (≈ 2.96 µg/mL); against Candida albicans CA2761 it was ≥ 128 µM; in [19], 64 µM (≈ 94.8 µg/mL); in assay [10], 64 µM (≈ 94.8 µg/mL); in assay [20] it was 4 µM (≈ 5.92 µg/mL); in assay [21], 16 µM (≈ 23.7 µg/mL).
Consider `CSCC[C@H](NC(=O)[C@@H](NC(=O)[C@@H](N)CCCN=C(N)N)C(C)C)C(=O)N[C@@H](Cc1ccccc1)C(=O)N[C@@H](CCCCN)C(=O)N[C@@H](Cc1c[nH]c2ccccc12)C(=O)N[C@@H](C)C(=O)O` [RVMFKWA], for which the MIC in assay [22] was ≥ 34.1 µM; in assay [23], ≥ 34.1 µM; in assay [24], 17.1 µM (≈ 16 µg/mL); in assay [25], 8.54 µM (≈ 8 µg/mL); in [26] it was ≥ 34.1 µM; in assay [27], 8.54 µM (≈ 8 µg/mL). The MIC was ≥ 34.1 µM in assay [28], ≥ 34.1 µM in assay [29] and 8.54 µM (≈ 8 µg/mL) in assay [30].
Turning to `CC[C@H](C)[C@H](NC(=O)[C@H](CCCN=C(N)N)NC(=O)[C@H](CCCN=C(N)N)NC(=O)[C@@H](NC(=O)[C@@H](NC(=O)[C@H](CCCN=C(N)N)NC(=O)[C@H](CCCN=C(N)N)NC(=O)[C@H](Cc1ccccc1)NC(=O)[C@H](CCCN=C(N)N)NC(=O)[C@H](CCCN=C(N)N)NC(=O)[C@H](CCCN=C(N)N)NC(=O)[C@H](CCCN=C(N)N)NC(=O)[C@@H](N)CCCN=C(N)N)C(C)C)[C@@H](C)CC)C(=O)N[C@@H](CCCN=C(N)N)C(=O)N[C@@H](CC(C)C)C(=O)N1CCC[C@H]1C(=O)N[C@@H](CCCCN)C(=O)N[C@@H](Cc1ccc(O)cc1)C(=O)N[C@@H](CC(C)C)C(=O)N[C@H](C(=O)N[C@H](C(=O)N[C@@H](CC(N)=O)C(=O)N[C@H](C(=O)N[C@@H](CCC(=O)O)C(=O)O)[C@@H](C)O)[C@@H](C)CC)[C@@H](C)O` [RRRRRFRRVIRRIRLPKYLTINTE], the MIC is ≥ 32 µM in assay [31]; 4 µM (≈ 12.9 µg/mL) in [3]; ≥ 32 µM in assay [32]; 8 µM (≈ 25.8 µg/mL) in assay [5]; 32 µM (≈ 103 µg/mL) in assay [8]; 2 µM (≈ 6.45 µg/mL) in assay [33].
